Measurements: patent US8592173B2, “Cancer diagnosis by measuring polyisoprenylated methylated protein methyl esterase activity” (Florida Agricultural and Mechanical University, priority 2011, dated 2013)

System: PMPMEase
Assay: Inhibition of PMPMEase by drugs, curcumin, fatty acids and prostaglandins
Format: biochemical
Conditions: for concentrations at which PMPMEase is inhibited: concentration range stated in words only

Row | Compound | concentrations at which PMPMEase is inhibited | also measured
1 | CCCCC[C@H](O)/C=C/[C@H]1C=CC(=O)[C@@H]1C/C=C\CCCC(=O)O [Prostaglandin (PG) A2] |  | fold less potent than AA as PMPMEase inhibitor (relative to arachidonic acid (AA)): 63 fold
2 | CCCCC/C=C\C/C=C\C/C=C\C/C=C\CCCC(=O)O [arachidonic acid] | micromolar concentrations | 
3 | COc1cc(/C=C/C(=O)CC(=O)/C=C/c2ccc(O)c(OC)c2)ccc1O [curcumin] | micromolar concentrations | 
4 | CC/C(=C(\c1ccccc1)c1ccc(OCCN(C)C)cc1)c1ccccc1 [tamoxifen] | millimolar concentrations | 
5 | CCCCC[C@H](O)/C=C/[C@H]1[C@H](O)CC(=O)[C@@H]1C/C=C\CCCC(=O)O [PGE2] |  | inhibition of PMPMEase at 1 mM (1 mM): did not inhibit
6 | O=P1(N(CCCl)CCCl)NCCCO1 (stereo not drawn) [cyclophosphamide] | millimolar concentrations | 
